One series has as its target T1, P2Y1 receptor (Homo sapiens, UniProt P47900).
T1 construct: hexahistidine; made in house; host or cells: baculovirus / Sf9 insect cells are named only as a preferred embodiment
The series is described as follows: steady state GTP hydrolysis by purified P2Y1-R reconstituted with Gα11 and Gβ1γ2 in proteoliposomes. In kind it is biochemical. Here is the method: Purified human P2Y1-R, Gα11, and Gβ1y2 were reconstituted in phospholipid vesicles.
In a glass tube, the following lipid solutions, which are made by solubilizing the lipids in chloroform, are combined: 11 μl PE (10 mg/ml), 7 μl PS (10 mg/ml), 4 μl cholesteryl hemisuccinate (2 mM). The mixture is dried under a stream of N2 or argon to prevent oxidation. The lipids are then dissolved in a buffer containing deoxycholate at 0.4% and sonicated to ensure complete solubilization. Proteins are added sequentially: 50 pmol of the appropriate G protein α subunit, 150 pmol Gβγ and 15 pmol of P2Y receptor. The mixture is passed over a sizing column to isolate the vesicles from the single components and the detergent. Isolated vesicles can then used for the GTP hydrolysis assays for which they can be diluted depending on their quality.
(§1) In a steady state embodiment of the present invention, vesicles are combined with agonists, GAP proteins γ-[^32P] labeled GTP, all in an appropriate buffer system. The assay is then incubated at between 20° C. and 30° C. for various times. P2Y receptor-promoted activity is measured as released ^32P, which is separated from [γ-^32P]GTP after the assay is halted by transfer to ice and addition of ice cold 5% slurry or activated charcoal in 20 mM phosphoric acid. See Biddlecome et al., J. Biol. Chem. 271: 7999-8007.
The P2Y1 receptor was expressed, purified and reconstituted into vesicles as described herein. GTP hydrolysis was measured by incubation of vesicles with 2 μM [γ^32P]GTP and quantitation of released [^32P]Pi.

In series [1] the test system is P2Y1 receptor/Gαq/β1γ2 vesicles. Put plainly: promotion of 2MeSADP-stimulated GTPase activity of P2Y1 receptor/Gαq/β1γ2 vesicles. As to conditions: 1 μM 2MeSADP, FIG. 4 and 5. The series is classed as biochemical. Here is the method: Purified P2Y1-R was reconstituted with Gαq and Gβ1y2.
FIG. 5 is a line graph depicting promotion of 2MeSADP-stimulated GTP hydrolysis by phospholipase C-β1. P2Y1-R was reconstituted with Gαq and Gβ1y2.
as §1
The selectivity of the P2Y1 receptor for coupling to various G proteins, and the selectivity of RGS proteins and phospholipase C-β isoenzymes for promoting GTPase activities were studied.

T1 sequence (P47900 whole entry): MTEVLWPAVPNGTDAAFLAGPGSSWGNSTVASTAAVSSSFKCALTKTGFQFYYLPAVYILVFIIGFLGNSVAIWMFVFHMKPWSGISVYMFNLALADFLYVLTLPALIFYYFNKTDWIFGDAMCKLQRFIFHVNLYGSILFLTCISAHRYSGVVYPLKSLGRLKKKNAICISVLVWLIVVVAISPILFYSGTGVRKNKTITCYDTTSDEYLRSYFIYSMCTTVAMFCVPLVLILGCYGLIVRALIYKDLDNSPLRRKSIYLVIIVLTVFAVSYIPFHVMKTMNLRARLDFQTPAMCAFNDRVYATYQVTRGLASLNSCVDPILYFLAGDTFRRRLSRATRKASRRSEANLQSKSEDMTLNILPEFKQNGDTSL

For “2-methylthioadenosine 5′-diphosphate [2MeSADP]”, the “stimulation of GTPase activity over basal” value at P2Y1 receptor (agonist together with RGS4, FIG. 2A) is recorded as “up to 100 fold”. At P2Y1 receptor (concentration used to identify antagonists), the “EC70 concentration of agonist” value is reported as “approximately 50 nM”. For the same molecule, the “hydrolysis of GTP on addition of agonist” value at P2Y1 receptor (in the presence of RGS4, FIG. 1) is on record as “marked increase”.

Turning to `Nc1ncnc2c1ncn2[C@@H]1O[C@H](COP(=O)(O)OP(=O)(O)OP(=O)(O)O)[C@@H](O)[C@H]1O` [ATP, adenosine 5′-triphosphate], the “agonist versus antagonist nature at the P2Y1 receptor” value on P2Y1 receptor (in the absence of receptor reserve) was “pure antagonist”.

B1: Phospholipase C-β1: phospholipase C-β isoenzyme stimulating GTPase activity of Gαq (protein, UniProt Q9NQ66 1-1216, looked up)
1-phosphatidylinositol …: MAGAQPGVHALQLKPVCVSDSLKKGTKFVKWDDDSTIVTPIILRTDPQGFFFYWTDQNKETELLDLSLVKDARCGRHAKAPKDPKLRELLDVGNIGRLEQRMITVVYGPDLVNISHLNLVAFQEEVAKEWTNEVFSLATNLLAQNMSRDAFLEKAYTKLKLQVTPEGRIPLKNIYRLFSADRKRVETALEACSLPSSRNDSIPQEDFTPEVYRVFLNNLCPRPEIDNIFSEFGAKSKPYLTVDQMMDFINLKQRDPRLNEILYPPLKQEQVQVLIEKYEPNNSLARKGQISVDGFMRYLSGEENGVVSPEKLDLNEDMSQPLSHYFINSSHNTYLTAGQLAGNSSVEMYRQVLLSGCRCVELDCWKGRTAEEEPVITHGFTMTTEISFKEVIEAIAECAFKTSPFPILLSFENHVDSPKQQAKMAEYCRLIFGDALLMEPLEKYPLESGVPLPSPMDLMYKILVKNKKKSHKSSEGSGKKKLSEQASNTYSDSSSMFEPSSPGAGEADTESDDDDDDDDCKKSSMDEGTAGSEAMATEEMSNLVNYIQPVKFESFEISKKRNKSFEMSSFVETKGLEQLTKSPVEFVEYNKMQLSRIYPKGTRVDSSNYMPQLFWNAGCQMVALNFQTMDLAMQINMGMYEYNGKSGYRLKPEFMRRPDKHFDPFTEGIVDGIVANTLSVKIISGQFLSDKKVGTYVEVDMFGLPVDTRRKAFKTKTSQGNAVNPVWEEEPIVFKKVVLPTLACLRIAVYEEGGKFIGHRILPVQAIRPGYHYICLRNERNQPLTLPAVFVYIEVKDYVPDTYADVIEALSNPIRYVNLMEQRAKQLAALTLEDEEEVKKEADPGETPSEAPSEARTTPAENGVNHTTTLTPKPPSQALHSQPAPGSVKAPAKTEDLIQSVLTEVEAQTIEELKQQKSFVKLQKKHYKEMKDLVKRHHKKTTDLIKEHTTKYNEIQNDYLRRRAALEKSAKKDSKKKSEPSSPDHGSSTIEQDLAALDAEMTQKLIDLKDKQQQQLLNLRQEQYYSEKYQKREHIKLLIQKLTDVAEECQNNQLKKLKEICEKEKKELKKKMDKKRQEKITEAKSKDKSQMEEEKTEMIRSYIQEVVQYIKRLEEAQSKRQEKLVEKHKEIRQQILDEKPKLQVELEQEYQDKFKRLPLEILEFVQEAMKGKISEDSNHGSAPLSLSSDPGKVNHKTPSSEELGGDIPGKEFDTPL
As to B1, in series [1], the “promotion of GTPase activity (potency and efficacy in words)” value was “potent and efficacious stimulator”.

The record behind these values is patent US20030175810A1, “Assay method and system for identification of P2Y receptor agonists and antagonists” (priority 2000, published 2003).
